Data: article PMC5733478, “A Non-imaging High Throughput Approach to Chemical Library Screening at the Unmodified Adenosine-A3 Receptor in Living Cells” (Frontiers in Pharmacology, 2017)
Counter-ions that a name gives are not always drawn. Like-named read-outs stand apart in the source and are kept apart here.

Target: T1, human A3AR (Homo sapiens, UniProt P0DMS8)
T1 construct: expressed in transfected cells
T1 sequence (P0DMS8 1-318): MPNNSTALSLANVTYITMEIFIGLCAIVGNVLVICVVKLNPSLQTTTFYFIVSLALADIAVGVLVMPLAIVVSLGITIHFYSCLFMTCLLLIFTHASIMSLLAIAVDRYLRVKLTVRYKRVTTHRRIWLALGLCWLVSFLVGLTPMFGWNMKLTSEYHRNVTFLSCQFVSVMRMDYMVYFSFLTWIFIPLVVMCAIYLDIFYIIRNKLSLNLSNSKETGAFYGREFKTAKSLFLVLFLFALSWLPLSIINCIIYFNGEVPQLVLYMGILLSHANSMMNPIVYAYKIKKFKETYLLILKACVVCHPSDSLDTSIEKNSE
Experiment: LOPAC library primary screen: single concentration (10 μM) inhibition of 25 nM CA200645 binding, PHERAstar FS

[1] = % of control wells (1% DMSO and 25 nM CA200645), compounds at 10 µM, whole live cells expressing the A3AR, mean ± SD, three experiments in duplicate
[2] = compounds tested at 10 µM, % of control wells (1% DMSO and 25 nM CA200645), whole live cells expressing the A3AR, mean ± SD, three experiments in duplicate

| SMILES | % 25 nM CA200645 binding | other results |
| --- | --- | --- |
| CC[C@]1(O)C[C@H]2CN(CCc3c([nH]c4ccccc34)[C@@](C(=O)OC)(c3cc4c(cc3OC)N(C=O)[C@H]3[C@@](O)(C(=O)OC)[C@H](OC(C)=O)[C@]5(CC)C=CCN6CC[C@]43[C@@H]65)C2)C1 [Vincristine sulfate] | 106.1 ± 21.2% |  |
| O=C1NCc2c1c1c3ccccc3[nH]c1c1[nH]c3ccccc3c21 [Staurosporine aglycone] | 81.9 ± 6.1% |  |
| O=C(Nc1ccncc1)c1cc([N+](=O)[O-])ccc1Cl [T0070907] | 110.9 ± 6.0% |  |
| COc1ccc2cc([C@H](C)C(=O)[O-])ccc2c1.[Na+] [(-)-Naproxen sodium] | 97.8 ± 4.0% |  |
| CN(C)CCC(c1ccc(Cl)cc1)c1ccccn1.O=C(O)/C=C\C(=O)O (racemic) [(±)-Chlorpheniramine maleate] | 99.2 ± 9.9% |  |
| CC(C)(C=O)Cc1cc(C(C)(C)C)c(O)c(C(C)(C)C)c1 [CGP-13501] | 97.4 ± 7.1% |  |
| Br.CCCN1CCc2cc(O)cc3c2[C@H]1Cc1ccc(O)c(O)c1-3 | 89.0 ± 14.4% |  |
| CCOC(=O)c1cnc2c(cnn2CC)c1NN=C(C)C [etazolate hydrochloride, reference compound] |  | hit in LOPAC primary screen (inhibited the binding of CA200645 by >40%) (10 μM compound, 25 nM CA200645, A3AR CHO cells): identified; % 25 nM CA200645 binding [1]: 46.2 ± 5.3% |
| CCCCc1oc2ccccc2c1C(=O)c1cc(I)c(OCCN(CC)CC)c(I)c1 [Amiodarone hydrochloride] | 91.5 ± 10.5% |  |
| CN(C)CCCN1c2ccccc2Sc2ccc(Cl)cc21 [Chlorpromazine hydrochloride] | 92.2 ± 10.3% |  |
| N[C@H](CCCP(=O)(O)O)C(=O)O [D(-)-2-Amino-5-phosphonopentanoic acid] |  | % 25 nM CA200645 binding [2]: 109.4 ± 11.9% |
| O=C1NC(c2cccc([N+](=O)[O-])c2)=CCN1c1ccccc1O [Icilin] |  | % 25 nM CA200645 binding [1]: 88.5 ± 5.8% |
| Cc1nc2c(OCc3ccccc3)cccn2c1CC#N [SCH-28080] | 97.5 ± 14.8% |  |
| O=[N+]([O-])c1ccc(CSc2ncnc3c2ncn3[C@@H]2O[C@H](CO)[C@@H](O)[C@H]2O)cc1 [S-(4-Nitrobenzyl)-6-thioinosine] | 95.1 ± 33.3% |  |
| CC(=O)OCC1=C(C(=O)O)N2C(=O)[C@@H](NC(=O)Cc3cccs3)[C@H]2SC1 [Cephalothin sodium] | 104.6 ± 12.0% |  |
| CNC(=O)[C@H]1O[C@@H](n2cnc3c(NCc4cccc(I)c4)ncnc32)[C@H](O)[C@@H]1O [IB-MECA, reference compound] | 36.3 ± 4.0% | % Total CA200645 binding: 36.3 ± 4.0% |
| Cn1cc(C2=C(c3ccc(Cl)cc3Cl)C(=O)NC2=O)c2ccccc21 [SB 216763] | 94.5 ± 10.2% |  |
| O=C(NCCN1CCOCC1)c1ccc(Cl)cc1 [Moclobemide] | 97.8 ± 6.0% |  |
| COc1cc(CNC(=O)CCCCCCC(C)C)ccc1O [Dihydrocapsaicin] | 86.7 ± 9.6% |  |
| CNS(=O)(=O)CCc1ccc2[nH]cc(C3CCN(C)CC3)c2c1 [Naratriptan hydrochloride] |  | % 25 nM CA200645 binding [2]: 102.9 ± 17.6% |
| COc1ccc2c(c1)c(CC(=O)O)c(C)n2C(=O)c1ccccc1 | 59.0 ± 9.2% |  |
| C[N+](C)(C)CCCCCCCCCC[N+](C)(C)C.[Br-].[Br-] [Decamethonium dibromide] | 106.4 ± 21.3% |  |
| N=C(N)NC(=O)c1nc(Cl)c(N2CCCCCC2)nc1N [5-(N,N-hexamethylene)amiloride] | 87.5 ± 4.4% |  |
| C#CCN(C)Cc1ccccc1 [Pargyline hydrochloride] | 102.9 ± 12.8% |  |
| CCN(CC)CCNC(=O)c1c(C)[nH]c(/C=C2\C(=O)Nc3ccc(F)cc32)c1C [Sunitinib malate] | 97.4 ± 12.4% |  |
